{"source": "patent EP0991637B1", "about": "“BENZO(5,6)CYCLOHEPTA(1,2-B)PYRIDINE DERIVATIVES AS FARNESYL PROTEIN TRANSFERASE INHIBITORS” (SCHERING CORPORATION, priority 1997, dated 1998)", "data": [{"tested_on": "COS Cell", "assay": "COS Cell IC50 (Cell-Based Assay), procedure of WO 95/10516", "details": "range stated for the whole group of compounds", "description": "FPT IC50 (inhibition of farnesyl protein transferase, in vitro enzyme assay) and COS Cell IC50 (Cell-Based Assay) were determined following the assay procedures described in WO 95/10516, published April 20, 1995. GGPT IC50 (inhibition of geranylgeranyl protein transferase, in vitro enzyme assay), Cell Mat Assay, and anti-tumor activity (in vivo anti-tumor studies) could be determined by the assay procedures described in WO 95/10516. The disclosure of WO 95/10516 is incorporated herein by reference thereto.", "units": {"IC50": "nM"}, "values": [{"smiles": "NC(=O)[C@H]1C[C@@H]1C(=O)N1CCC([C@H]2c3ncc(Br)cc3CCc3cc(Cl)cc(Br)c32)CC1", "note": "[Compound 55.0, Trans-2(S)-[[4-(3,10-dibromo-8-chloro-6,11-dihydro-5H-benzo[5,6]cyclohepta[1,2-b]pyridin-11(R)-yl)-1-piperidinyl]carbonyl]-(S)-cyclopropanecarboxamide]", "IC50": "10 to 500"}, {"smiles": "O=C(O)Cc1ccc(CC(=O)N2CCC([C@H]3c4ncc(Br)cc4CCc4cc(Cl)cc(Br)c43)CC2)cc1", "note": "[Example 3]", "IC50": "10 to 500"}, {"smiles": "O=C(O)Cc1cccc(CC(=O)N2CCC([C@H]3c4ncc(Br)cc4CCc4cc(Cl)cc(Br)c43)CC2)c1", "note": "[Example 4]", "IC50": "10 to 500"}, {"smiles": "CCOC(=O)C1CCC(CC(=O)N2CCC([C@H]3c4ncc(Br)cc4CCc4cc(Cl)cc(Br)c43)CC2)CC1", "note": "(stereo partly shown) [Example 8]", "IC50": "10 to 500"}, {"smiles": "O=C(O)C1CCC(CC(=O)N2CCC([C@H]3c4ncc(Br)cc4CCc4cc(Cl)cc(Br)c43)CC2)CC1", "note": "(stereo partly shown) [Example 12]", "IC50": "10 to 500"}, {"smiles": "O=C(O)CC1CCC(CC(=O)N2CCC([C@H]3c4ncc(Br)cc4CCc4cc(Cl)cc(Br)c43)CC2)CC1", "note": "(stereo partly shown) [Example 13]", "IC50": "10 to 500"}, {"smiles": "O=C(O)C=C1CCC(=CC(=O)N2CCC([C@H]3c4ncc(Br)cc4CCc4cc(Cl)cc(Br)c43)CC2)CC1", "note": "[Example 14]", "IC50": "10 to 500"}, {"smiles": "NC(=O)Cc1ccc(CC(=O)N2CCC([C@H]3c4ncc(Br)cc4CCc4cc(Cl)cc(Br)c43)CC2)cc1", "note": "[Example 15]", "IC50": "10 to 500"}, {"smiles": "NC(=O)Cc1cccc(CC(=O)N2CCC([C@H]3c4ncc(Br)cc4CCc4cc(Cl)cc(Br)c43)CC2)c1", "note": "[Example 16]", "IC50": "10 to 500"}, {"smiles": "COC(=O)CNC(=O)Cc1cccc(CC(=O)N2CCC([C@H]3c4ncc(Br)cc4CCc4cc(Cl)cc(Br)c43)CC2)c1", "note": "[Example 17]", "IC50": "10 to 500"}, {"smiles": "COC(=O)CNC(=O)Cc1ccc(CC(=O)N2CCC([C@H]3c4ncc(Br)cc4CCc4cc(Cl)cc(Br)c43)CC2)cc1", "note": "[Example 18]", "IC50": "10 to 500"}, {"smiles": "CONC(=O)Cc1ccc(CC(=O)N2CCC([C@H]3c4ncc(Br)cc4CCc4cc(Cl)cc(Br)c43)CC2)cc1", "note": "[Example 19]", "IC50": "10 to 500"}, {"smiles": "NC(=O)CC1CCC(CC(=O)N2CCC([C@H]3c4ncc(Br)cc4CCc4cc(Cl)cc(Br)c43)CC2)CC1", "note": "(stereo partly shown) [Example 22]", "IC50": "10 to 500"}, {"smiles": "NC(=O)C1CCC(CC(=O)N2CCC([C@H]3c4ncc(Br)cc4CCc4cc(Cl)cc(Br)c43)CC2)CC1", "note": "(stereo partly shown) [Example 23]", "IC50": "10 to 500"}, {"smiles": "COC(=O)Cc1ccc(CC(=O)N2CCC([C@H]3c4ncc(Br)cc4CCc4cc(Cl)cc(Br)c43)CC2)cc1", "note": "[Example 34]", "IC50": "10 to 500"}, {"smiles": "O=C(O)C[C@H]1CC[C@@H](C(=O)N2CCC([C@H]3c4ncc(Br)cc4CCc4cc(Cl)cc(Br)c43)CC2)CC1", "note": "[Example 35]", "IC50": "10 to 500"}, {"smiles": "O=C(O)C[C@H]1CC[C@H](C(=O)N2CCC([C@H]3c4ncc(Br)cc4CCc4cc(Cl)cc(Br)c43)CC2)CC1", "note": "[Example 36]", "IC50": "10 to 500"}]}, {"tested_on": "Human tumor cells", "assay": "Soft Agar Assay (anchorage-independent growth, colony outgrowth, MTT staining)", "format": "cell-based", "details": "0.3% agarose over 0.6% agarose, 10-16 days at 37°C under 5% CO2", "description": "Anchorage-independent growth is a characteristic of tumorigenic cell lines. Human tumor cells are suspended in growth medium containing 0.3% agarose and an indicated concentration of a farnesyl transferase inhibitor. The solution is overlayed onto growth medium solidified with 0.6% agarose containing the same concentration of farnesyl transferase inhibitor as the top layer. After the top layer is solidified, plates are incubated for 10-16 days at 37°C under 5% CO2 to allow colony outgrowth. After incubation, the colonies are stained by overlaying the agar with a solution of MTT (3-[4,5-dimethyl-thiazol-2-yl]-2,5-diphenyltetrazolium bromide, Thiazolyl blue) (1 mg/mL in PBS). Colonies can be counted and the IC50's can be determined.", "units": {"IC50": "nM"}, "values": [{"smiles": "CCOC(=O)C1CCC(CC(=O)N2CCC([C@H]3c4ncc(Br)cc4CCc4cc(Cl)cc(Br)c43)CC2)CC1", "note": "(stereo partly shown) [Example 8]", "IC50": "> 500"}, {"smiles": "O=C(O)C=C1CCC(=CC(=O)N2CCC([C@H]3c4ncc(Br)cc4CCc4cc(Cl)cc(Br)c43)CC2)CC1", "note": "[Example 14]", "IC50": "> 500"}]}]}
